Holding throughout (format): cell-based
The subject of test [1] is pAKT. The experiment in a line: Immunoblotting of PATU-8902 FKBP12^F36V-KRAS^G12V; KRAS^−/− clone (Example 8), AKT signaling. The following applies: 50 or 500 nM, 4 hrs. As for the experimental part: (§1) PATU-8902 FKBP12^F36V-KRAS^G12V; KRAS^−/− clone was plated in 6-well format, allowed to adhere overnight, and treated with 50 nM and 500 nM dTAG molecules for 4 hrs. Following treatment, cells were lysed in RIPA buffer on ice for 60 minutes. Lysates were clarified by centrifugation at 20,000×g for 10 minutes at 4° C. Immunoblotting was performed to determine changes in protein levels with an Odyssey CLx Imager. The indicated antibodies were employed including HA to monitor FKBP12^F36V-KRAS^G12V degradation, total and phosphorylated ERK to evaluate changes in ERK signaling, total and phosphorylated AKT to evaluate changes in AKT signaling and α-TUBULIN as a loading control.

For test [2], the system named is FKBP12^F36V-KRAS^G12V. The experiment in a line: Immunoblotting of PATU-8902 FKBP12^F36V-KRAS^G12V; KRAS^−/− clone (Example 8), HA. The following applies: 50 or 500 nM, 4 hrs. As for the experimental part: as §1
In general terms: In western blotting, separated proteins are transferred to a membrane and probed.

Test [3] deals with FKBP12^F36V-GFP. The experiment in a line: Immunoblotting of EWS502 FKBP12^F36V-GFP cells. The conditions noted are these: dTAG-13 10-5000 nM, compound 1 50-5000 nM, 24 hrs. As for the experimental part: (§2) EWS502 FKBP12^F36V-GFP and FKBP12^F36V-EWS/FLI; EWS/FLP^−/− cells were plated in 6-well format, allowed to adhere overnight, and treated with (10-5000 nM) dTAG-13 or (50-5000 nM) compound 1 for 24 hrs. Following treatment, cells were lysed in Cell Lysis Buffer (Cell Signaling Technology®) on ice for 60 minutes. Lysates were clarified by centrifugation at 20,000×g for 10 minutes at 4° C. Immunoblotting was performed to determine changes in protein levels upon incubation with the appropriate horseradish peroxidase-conjugated secondary antibodies. The indicated antibodies were employed including HA to monitor FKBP12^F36V-GFP or FKBP12^F36V-EWS/FLI degradation and Vinculin as a loading control.

Test [4] has as its system PATU-8902 LACZ-FKBP12^F36V clone. The experiment in a line: Anti-proliferation via CellTiter-Glo, PATU-8902 LACZ-FKBP12^F36V control clone (Example 12). The conditions noted are these: 0.000063-2 μM, 72 hrs. As for the experimental part:
(§3) PATU-8902 LACZ-FKBP12^F36V or FKBP12^F36V-KRAS^G12V; KRAS^−/− clones were plated in 384-well format, allowed to adhere overnight, and treated with various dTAG molecules from compound stock plates using a JANUS® Workstation pin tool for 72 hrs. To measure cell viability, Cell Tilter-Glo® was added to wells for 15 minutes at r.t. and luminescence was measured on an EnVision™ 2104 Multilabel Plate Reader.
(In general: ATP-based viability assays read luminescence as a measure of living cells.)

For test [5] the test system is unchanged. The experiment in a line: Anti-proliferation via CellTiter-Glo, PATU-8902 LACZ-FKBP12^F36V control clone (Example 11). The following applies: 0.00063-20 μM, 72 hrs. As for the experimental part: (§4) PATU-8902 LACZ-FKBP12^F36V or FKBP12^F36V-KRAS^G12V; KRAS^−/− clones were plated in 384-well format, allowed to adhere overnight, and treated with various dTAG molecules from compound stock plates using a JANUS® Workstation pin tool for 72 hrs. To measure cell viability, CellTilter-Glo® was added to wells for 15 minutes at r.t. and luminescence was measured on an EnVision™ 2104 Multilabel Plate Reader.

Test [6] concerns LACZ-FKBP12^F36V. The experiment in a line: Immunoblotting of PATU-8902 LACZ-FKBP12^F36V clone, compound 1 and/or THAL-SNS-032 (Example 7), HA. The following applies: 500 nM compound 1, 24 hrs, single agent. As for the experimental part:
(§5) PATU-8902 LACZ-FKBP12^F36V clone was plated in 6-well format, allowed to adhere overnight, and treated with DMSO and indicated doses of THAL-SNS-032 and/or 500 nM compound 1 for 24 hrs. Following treatment, cells were lysed in RIPA buffer on ice for 60 minutes. Lysates were clarified by centrifugation at 20,000×g for 10 minutes at 4° C. Immunoblotting was performed to determine changes in protein levels with an Odyssey CLx Imager. The indicated antibodies were employed including HA to monitor LACZ-FKBP12^F36V degradation, CDK9 to monitor CDK9 degradation and α-TUBULIN as a loading control.

Test [7] has as its system PATU-8902 FKBP12^F36V-KRAS^G12V; KRAS^−/− clone. The experiment in a line: Anti-proliferation via CellTiter-Glo, PATU-8902 FKBP12^F36V-KRAS^G12V; KRAS^−/− clone (Example 12). The conditions noted are these: 0.000063-2 μM, 72 hrs. As for the experimental part: as §3
Test [8] deals with FKBP12^F36V-KRAS^G12V. The experiment in a line: Immunoblotting of 293T^WT FKBP12^F36V-KRAS^G12V cells. The following applies: 50 or 500 nM, 24 hrs. As for the experimental part:
(§6) 293T^WT or 293T^VHL−/− FKBP12^F36V-KRAS^G12V cells were plated in 6-well format, allowed to adhere overnight, and treated with 50 nM and 500 nM dTAG molecules for 24 hrs. Following treatment, cells were lysed in RIPA buffer on ice for 60 minutes. Lysates were clarified by centrifugation at 20,000×g for 10 minutes at 4° C. Immunoblotting was performed to determine changes in protein levels with an Odyssey CLx Imager. The indicated antibodies were employed including HA to monitor FKBP12^F36V-KRAS^G12V degradation and α-TUBULIN as a loading control.

Test [9] relates to PATU-8902 LACZ-FKBP12^F36V clone. The experiment in a line: Cell transformation by growth in ultra-low attachment conditions, PATU-8902 LACZ-FKBP12^F36V control clone (Example 13). The following applies: 0.000063-2 μM, 120 hrs. As for the experimental part:
(§7) PATU-8902 LACZ-FKBP12^F36V or FKBP12^F36V-KRAS^G12V; KRAS^−/− clones were plated in 384-well format in ultra-low attachment conditions, allowed to form 3D-spheroids overnight, and treated with various dTAG molecules from compound stock plates using a JANUS® Workstation pin tool for 120 hrs. To measure cell transformation, Cell Tilter-Glo® was added to wells for 15 minutes at room temperature and luminescence was measured on an EnVision™ 2104 Multilabel Plate Reader.

Test [10] relates to PATU-8902 FKBP12^F36V-KRAS^G12V; KRAS^−/− clone. The experiment in a line: Anti-proliferation via CellTiter-Glo, PATU-8902 FKBP12^F36V-KRAS^G12V; KRAS^−/− clone (Example 11). The following applies: 0.00063-20 μM, 72 hrs. As for the experimental part: as §4
Test [11] deals with LACZ-FKBP12^F36V. The experiment in a line: Immunoblotting of PATU-8902 LACZ-FKBP12^F36V clone (Example 6). The following applies: 50 or 500 nM, 4 hrs. As for the experimental part: PATU-8902 LACZ-FKBP12^F36V clone was plated in 6-well format, allowed to adhere overnight, and treated with 50 nM and 500 nM dTAG molecules for 4 hrs. Following treatment, cells were lysed in RIPA buffer on ice for 60 minutes. Lysates were clarified by centrifugation at 20,000×g for 10 minutes at 4° C. Immunoblotting was performed to determine changes in protein levels with an Odyssey CLx Imager. The indicated antibodies were employed including HA (hemagglutinin) to monitor LACZ-FKBP12^F36V degradation and α-TUBULIN as a loading control.

Test [12] has as its system PATU-8902 FKBP12^F36V-KRAS^G12V; KRAS^−/− clone. The experiment in a line: Cell transformation by growth in ultra-low attachment conditions, PATU-8902 FKBP12^F36V-KRAS^G12V; KRAS^−/− clone (Example 13). The conditions noted are these: 0.000063-2 μM, 120 hrs. As for the experimental part:
as §7

Test [13] has as its system FKBP12^F36V-EWS/FLI. The experiment in a line: Immunoblotting of EWS502 FKBP12^F36V-EWS/FLI; EWS/FLI^−/− cells. The following applies: dTAG-13 10-5000 nM, compound 1 50-5000 nM, 24 hrs, EWS502 cells. As for the experimental part:
as §2

The test system of test [14] is pERK. The experiment in a line: Immunoblotting of PATU-8902 FKBP12^F36V-KRAS^G12V; KRAS^−/− clone (Example 8), ERK signaling. The following applies: 50 or 500 nM, 4 hrs. As for the experimental part: as §1
Test [15] concerns FKBP12^F36V-KRAS^G12V. The experiment in a line: Immunoblotting of 293T^VHL−/− FKBP12^F36V-KRAS^G12V cells. The following applies: 50 or 500 nM, 24 hrs. As for the experimental part: as §6
In test [16] the test system is FKBP12^F36V-KRAS^G12V. The experiment in a line: Immunoblotting of PATU-8902 FKBP12^F36V-KRAS^G12V; KRAS^−/− clone with carfilzomib or MLN4924 pre-treatment (Example 9). The following applies: 500 nM, 4 hrs. As for the experimental part: PATU-8902 FKBP12^F36V-KRAS^G12V; KRAS^−/− clone was plated in 6-well format, allowed to adhere overnight, and treated with DMSO, Carflizomib (CARF) or MLN4924 (MLN) prior to treatment with DMSO or compound 1 for 4 hrs. Following treatment, cells were lysed in RIPA buffer on ice for 60 minutes. Lysates were clarified by centrifugation at 20,000×g for 10 minutes at 4° C. Immunoblotting was performed to determine changes in protein levels with an Odyssey CLx Imager. The indicated antibodies were employed including HA to monitor FKBP12^F36V-KRAS^G12V degradation and α-TUBULIN as a loading control.

The target of test [17] is T1, CDK9 (Homo sapiens, UniProt P50750).
T1 construct: endogenous in cells; host or cells: PATU-8902 LACZ-FKBP12^F36V clone
The experiment in a line: Immunoblotting of PATU-8902 LACZ-FKBP12^F36V clone, compound 1 and/or THAL-SNS-032 (Example 7), CDK9. The following applies: indicated doses of THAL-SNS-032, 24 hrs, single agent. As for the experimental part:
as §5

The source of these data is US20220089589A1, “SMALL MOLECULE DEGRADERS OF FKBP12 VIA RECRUITMENT OF VON HIPPEL-LINDAU E3 UBIQUITIN LIGASE (VHL) E3 UBIQUITIN LIGASE, AND USES IN dTAG SYSTEMS” (DANA-FARBER CANCER INSTITUTE, INC., priority 2019, published 2022).

SMILES strings stand for the structures. Entries after “also recorded” stand apart in the source; their conditions may differ.

`CC[C@H](C(=O)N1CCCC[C@H]1C(=O)O[C@H](CCc1ccc(OC)c(OC)c1)c1ccccc1OCC(=O)NCCCCCCC(=O)N[C@H](C(=O)N1C[C@H](O)C[C@H]1C(=O)N[C@@H](C)c1ccc(-c2scnc2C)cc1)C(C)(C)C)c1cc(OC)c(OC)c(OC)c1` [Compound 1, (R)-3-(3,4-dimethoxyphenyl)-1-(2-(2-((7-(((S)-1-((2S,4R)-4-hydroxy-2-(((S)-1-(4-(4-methylthiazol-5-yl)phenyl)ethyl)carbamoyl)pyrrolidin-1-yl)-3,3-dimethyl-1-oxobutan-2-yl)amino)-7-oxoheptyl)amino)-2-oxoethoxy)phenyl)propyl (S)-1-((S)-2-(3,4,5-trimethoxyphenyl)butanoyl)piperidine-2-carboxylate]: in test [1], the “pAKT levels (immunoblot)” value was “pronounced diminished levels”. Besides, the “degradation of FKBP12^F36V-KRAS^G12V (immunoblot)” value in [2] and in test [16] (DMSO pre-treatment) was “potent degradation” in each case. Moreover, in test [3], the “degradation of FKBP12^F36V-GFP (immunoblot)” value is reported as “Degradation of GFP (control) is observed; also recorded: potent degradation”. Moreover, the “anti-proliferative effects on LACZ-FKBP12^F36V control clone” value in [4] and in [5] was “limited effects” throughout. Further, the “degradation of LACZ-FKBP12^F36V (immunoblot)” value in test [6] is given as “potent degradation”; in test [11] it was “rapid degradation; also recorded: potent degradation”. In addition, the “anti-proliferative effects / loss of cell viability (% DMSO control)” value in [7] and in [10] was “Effective loss of viability; also recorded: potent anti-proliferative effects” in each case. The “degradation of FKBP12^F36V-KRAS^G12V in 293T^WT cells (immunoblot)” value in test [8] is “potent degradation”. Also, the “effects on cell transformation of LACZ-FKBP12^F36V control clone” value in test [9] was “limited effects”. In addition, the “loss of cell transformation (3D-spheroids, % DMSO control)” value in test [12] is given as “Effective loss of viability; also recorded: potent loss of cell transformation”. The “degradation of FKBP12^F36V-EWS/FLI (immunoblot)” value in test [13] is recorded as “potent degradation”. In addition, the “pERK levels (immunoblot)” value in test [14] is recorded as “pronounced diminished levels”. In addition, the “degradation of FKBP12^F36V-KRAS^G12V in 293T^VHL−/− cells (immunoblot)” value in test [15] is “not and did not degrade”. Moreover, the “degradation of FKBP12^F36V-KRAS^G12V after pre-treatment with Nedd8 activating enzyme inhibitor MLN4924 (MLN)” value in test [16] (MLN4924 pre-treatment) was “rescued”. The “degradation of FKBP12^F36V-KRAS^G12V after pre-treatment with proteasome-inhibitor carfilzomib (CARF)” value in test [16] (carfilzomib pre-treatment) is “rescued”.

Turning to `CC(C)(C)c1cnc(CSc2cnc(NC(=O)C3CCN(CC(=O)NCCOCCOCCOCCNc4cccc5c4C(=O)N(C4CCC(=O)NC4=O)C5=O)CC3)s2)o1` (stereo not shown) [THAL-SNS-032], the “degradation of CDK9 (immunoblot)” value in [17] is “potent degradation”.
